Results on one molecule are retold here after publication PMC6151500 (Molecules : A Journal of Synthetic Chemistry and Natural …, 2017).

The target in the experiment is Homo sapiens butyrylcholinesterase (hBuChE) (Homo sapiens, UniProt P06276). The experiment in a line: Inhibition of hBuChE (Ellman assay, 4PL dose-response).

In general, IC50 refers to the point on the concentration scale where inhibition reaches its midpoint.

Sequence of Homo sapiens butyrylcholinesterase (hBuChE) (P06276 29-602): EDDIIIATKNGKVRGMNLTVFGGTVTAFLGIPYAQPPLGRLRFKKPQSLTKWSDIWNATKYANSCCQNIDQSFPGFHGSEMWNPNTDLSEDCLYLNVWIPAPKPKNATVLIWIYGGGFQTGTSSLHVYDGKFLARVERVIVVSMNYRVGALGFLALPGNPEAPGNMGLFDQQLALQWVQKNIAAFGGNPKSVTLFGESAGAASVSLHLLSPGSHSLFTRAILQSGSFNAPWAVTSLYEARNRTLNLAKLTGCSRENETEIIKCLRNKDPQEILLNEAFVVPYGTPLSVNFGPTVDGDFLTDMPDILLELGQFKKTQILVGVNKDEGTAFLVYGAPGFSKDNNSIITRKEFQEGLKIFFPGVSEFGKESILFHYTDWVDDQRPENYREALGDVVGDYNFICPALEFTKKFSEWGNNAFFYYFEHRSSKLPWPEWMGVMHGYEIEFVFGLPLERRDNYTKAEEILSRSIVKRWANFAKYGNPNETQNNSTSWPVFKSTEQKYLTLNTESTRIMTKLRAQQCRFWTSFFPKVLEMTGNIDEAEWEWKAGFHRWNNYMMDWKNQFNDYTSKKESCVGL

`CN(C)c1ccc(C(=C2C=CC(=[N+](C)C)C=C2)c2ccc(N(C)C)cc2)cc1` [CV, tris(4-(dimethylamino)phenyl)methylium chloride] came in with an IC50 of 900 nM.
